In ChEMBL document CHEMBL1149638, “Synthesis of novel antitumoural analogues of dysidiolide from ent-halimic acid” (Bioorg Med Chem, 2007) one finds IC50 data, which are given here for 15 compounds.

A value given as a limit tells only on which side of the number the result lay.

Holding throughout (type): functional, cell-based
The subject of one test is HeLa. Briefly: Antiproliferative activity against human HeLa cells after 72 hrs by XTT assay.
The subject of a further test is A549. Briefly: Antiproliferative activity against human A549 cells after 72 hrs by XTT assay. Particulars: A549, 72 h.
A further test has as its system HT-29. Kind of test: Antiproliferative activity against human HT29 cells after 72 hrs by XTT assay. The conditions noted are these: HT-29, 72 h. In general terms: Tetrazolium assays rely on reduction of a dye to a coloured formazan, in cell work by metabolically active cells.
The next test has as its system HL-60. Kind of test: Antiproliferative activity against human HL60 cells after 72 hrs by XTT assay. Particulars: HL-60, 72 h.

In general, IC50 refers to the point on the concentration scale where inhibition reaches its midpoint. The low end stands for greater potency in that assay, the high end for weaker potency in that assay. For the compound `COC/C=C(\C)CC[C@]1(C)C2=C(CC[C@H]1C)C1(C)CCC2[C@@](O)(C2=CC(=O)OC2O)C1` (stereo not given in full), the IC50 was 26.5 µM in the test on HeLa, 28.2 µM with A549, 18.7 µM in the test with HT-29 and 18.7 µM in the test with HL-60.

On to `CC(C)=CCC[C@]1(C)C2=CCC[C@](C)(CC(=O)c3ccoc3)[C@H]2CC[C@H]1C`, for which the IC50 in the test with HeLa stood at 54.5 µM; in the test on A549 it was 91 µM; in the test on HT-29, 82.3 µM; with HL-60 it was 57.8 µM.

With `C=C(C)CCC[C@]1(C)C2=C(CC[C@H]1C)C1(C)CCC2[C@@](O)(C2=CC(=O)OC2O)C1` (stereo not given in full), the IC50 was determined as 3.1 µM in the test on HeLa, 3 µM in the test on A549, 2.9 µM with HT-29 and 0.3 µM in the test on HL-60.

As to `C=C(C)CC[C@]1(C)C2=CCC[C@](C)(C[C@H](O)C3=CC(=O)OC3O)[C@H]2CC[C@H]1C` (stereo not given in full), the IC50 in the test on HeLa is 4.8 µM; in the test on A549, 4.5 µM; with HT-29 it was 3.2 µM; in the test with HL-60, 3.2 µM.

Consider `C=C(C)CC[C@]1(C)C2=CCC[C@](C)(C[C@@H](OC(C)=O)C3=CC(=O)OC3O)[C@H]2CC[C@H]1C` (stereo not given in full), for which the 50% inhibitory concentration (IC50) worked out at 6.7 µM in the test with HeLa, 11.1 µM with A549, 4.8 µM in the test on HT-29 and 3.3 µM in the test on HL-60.

`C=C(C)CCC[C@]1(C)C2=CCC[C@](C)(C[C@H](O)C3=CC(=O)OC3O)[C@H]2CC[C@H]1C` (stereo not given in full): the 50% inhibitory concentration (IC50) is 3.8 µM in the test with HeLa, 3.2 µM in the test on A549, 3 µM with HT-29 and 3 µM with HL-60.

As to `C=C(C)CCC[C@]1(C)C2=CCC[C@](C)(C[C@@H](O)c3ccoc3)[C@H]2CC[C@H]1C`, the IC50 in the test on HeLa came out at 59.4 µM; in the test on A549 it was 66 µM; with HT-29, 63.1 µM; in the test on HL-60, 31.2 µM.

Take `C=C(C)CC[C@]1(C)C2=CCC[C@](C)(C[C@@H](O)C3=CC(=O)OC3O)[C@H]2CC[C@H]1C` (stereo not given in full): the 50% inhibitory concentration (IC50) in the test with HeLa turned out to be 5.4 µM; in the test on A549 it was 4.4 µM; with HT-29, 3.6 µM; with HL-60, 3.3 µM.

As to `C=C(C)CCC[C@]1(C)C2=CCC[C@](C)(C[C@H](OC(C)=O)C3=CC(=O)OC3O)[C@H]2CC[C@H]1C` (stereo not given in full), the IC50 in the test on HeLa is 2.6 µM; with A549 it was 4.5 µM; with HT-29 it was 4.2 µM; in the test with HL-60, 3 µM.

On to `C=C(C)CC[C@]1(C)C2=CCC[C@](C)(C[C@@H](O)c3ccoc3)[C@H]2CC[C@H]1C`, for which the IC50 in the test on HeLa amounted to 30.2 µM; in the test on A549, 34 µM; in the test on HT-29 it was 30 µM; in the test on HL-60, 28.7 µM.

Take `C=C(C)CC[C@]1(C)C2=CCC[C@](C)(C[C@H](O)c3ccoc3)[C@H]2CC[C@H]1C`: the half-maximal inhibitory concentration (IC50) in the test on HeLa amounted to 30.2 µM; in the test with A549 it was 34 µM; with HT-29, 30 µM; in the test with HL-60, 28.7 µM.

In the case of `C=C(C)CCC[C@]1(C)C2=CCC[C@](C)(C[C@H](O)c3ccoc3)[C@H]2CC[C@H]1C`, the IC50 with HeLa is 59.4 µM; in the test on A549, 66 µM; with HT-29 it was 63.1 µM; in the test on HL-60, 31.2 µM.

As to `C=C(C)CCC[C@]1(C)C2=CCC[C@](C)(C[C@@H](OC(C)=O)C3=CC(=O)OC3O)[C@H]2CC[C@H]1C` (stereo not given in full), the IC50 came out at 3.5 µM in the test with HeLa, 3.2 µM in the test on A549, 2.9 µM in the test on HT-29 and 3.2 µM in the test on HL-60.

Regarding `C=C(C)CCC[C@]1(C)C2=CCC[C@](C)(CC(=O)c3ccoc3)[C@H]2CC[C@H]1C`, the IC50 in the test on HeLa, in the test with A549, with HT-29 and in the test on HL-60 was more than 100 µM each time.

Turning to `C=C(C)CCC[C@]1(C)C2=CCC[C@](C)(C[C@@H](O)C3=CC(=O)OC3O)[C@H]2CC[C@H]1C` (stereo not given in full), the IC50 was 2.6 µM with HeLa, 3.8 µM in the test on A549, 2.3 µM in the test on HT-29 and 3.2 µM with HL-60.
